Experimental data: paper PMC5132016 (Clinical Pharmacology in Drug Development, 2016)

Key:
[1] = Single-dose pharmacokinetics of EE and LN; assay type: in vivo, human; conditions: for Tmax: single oral Microgynon 30 alone, median (range), n = 19
[2] = cited from earlier work
[3] = tofacitinib 30 mg twice daily; cited from earlier work
[4] = female, human, plasma, oral, adjusted geometric mean, Reference (Microgynon 30 alone)
[5] = tofacitinib 30 mg twice daily vs Microgynon 30 alone
[6] = Microgynon 30 + tofacitinib / Microgynon 30 alone

For C#C[C@]1(O)CC[C@H]2[C@@H]3CCc4cc(O)ccc4[C@H]3CC[C@@]21C [Ethinylestradiol, ethinylestradiol], the AUC(0-inf) [1, 4] was 0.716 ng·h/mL, the Tmax [1] was 1.5 (1.0–2.1) h and the “Decrease of maximal plasma concentration when coadministered with tofacitinib” value [1, 5] was 10.4%. The “Increase of AUC∞ in the presence of tofacitinib” value [1, 5] was 6.6%.
For C#C[C@]1(O)CC[C@H]2[C@@H]3CCC4=CC(=O)CC[C@@H]4[C@H]3CC[C@@]21CC [Levonorgestrel, levonorgestrel], the “Ratio (Test/Reference) of adjusted geometric means, AUClast” value [1, 6] was 104.60%, the “Ratio (Test/Reference) of adjusted geometric means, AUC∞” value [1, 6] was 100.87% and the “Ratio (Test/Reference) of adjusted geometric means, Cmax” value [1, 6] was 112.19%. For the same compound, the AUC(0-t) ([1]; female, human, plasma, oral, AUClast, adjusted geometric mean, Reference (Microgynon 30 alone)) was 35 ng·h/mL, the AUC(0-inf) [1, 4] was 44.6 ng·h/mL and the Cmax ([1]; female, human, plasma, oral, Cmax, adjusted geometric mean, Reference (Microgynon 30 alone)) was 3.78 ng/mL. The Tmax [1] was 1.0 (1.0–2.0) h, the “Increase of AUC∞ in the presence of tofacitinib” value [1, 5] was 0.9% and the “Increase of maximal plasma concentration when coadministered with tofacitinib” value [1, 5] was 12.2%.
In the case of C[C@@H]1CCN(C(=O)CC#N)C[C@@H]1N(C)c1ncnc2[nH]ccc12 [Tofacitinib], the “Effect on the pharmacokinetics of EE and LN” value ([1]; tofacitinib 30 mg twice daily for 11 days, healthy women) is listed as “no clinically relevant net inhibitory or inductive effect”, the “Nonrenal share of clearance” value [2] is listed as 70% and the “Renally excreted share of clearance” value [2] is listed as 30%. The “Share of metabolism by CYP3A4” value [2] was “approximately 55%”.
In the case of Cc1ncc2n1-c1ccc(Cl)cc1C(c1ccccc1F)=NC2 [midazolam], the “Change in Cmax when coadministered with tofacitinib” value [3] is listed as “no change” and the “Change in total exposure (AUC∞) when coadministered with tofacitinib” value [3] is listed as “no change”.
